Laboratory results from the CheMixHub viscosity set.
± gives the uncertainty stated by the source.

Test: xn = mol fraction of the nth substance listed

C1CCCCC1 + c1ccccc1
Settings | viscosity [mPa·s]
298.15 K, 101.33 kPa, x2 = 0.15 | 0.7725 ± 0.02
298.15 K, 101.33 kPa, x2 = 0.2174 | 0.7122 ± 0.018
298.15 K, 101.33 kPa, x2 = 0.2438 | 0.7115 ± 0.019
298.15 K, 101.33 kPa, x2 = 0.3364 | 0.6599 ± 0.017
298.15 K, 101.33 kPa, x2 = 0.35 | 0.6571 ± 0.017
298.15 K, 101.33 kPa, x2 = 0.4874 | 0.6124 ± 0.016
298.15 K, 101.33 kPa, x2 = 0.5 | 0.612 ± 0.016
298.15 K, 101.33 kPa, x2 = 0.549 | 0.6011 ± 0.016
298.15 K, 101.33 kPa, x2 = 0.647 | 0.5879 ± 0.015
298.15 K, 101.33 kPa, x2 = 0.65 | 0.5853 ± 0.015
298.15 K, 101.33 kPa, x2 = 0.7814 | 0.583 ± 0.015
298.15 K, 101.33 kPa, x2 = 0.7848 | 0.574 ± 0.015
298.15 K, 101.33 kPa, x2 = 0.9 | 0.5761 ± 0.015
298.15 K, 101.33 kPa, x2 = 0.9033 | 0.5926 ± 0.015
303.15 K, 101 kPa, x1 = 0.0989 | 0.5467 ± 0.004
303.15 K, 101 kPa, x1 = 0.1983 | 0.5433 ± 0.004
303.15 K, 101 kPa, x1 = 0.3019 | 0.5485 ± 0.004
303.15 K, 101 kPa, x1 = 0.3998 | 0.5602 ± 0.004
303.15 K, 101 kPa, x1 = 0.5035 | 0.5792 ± 0.0041
303.15 K, 101 kPa, x1 = 0.6015 | 0.6041 ± 0.0042
303.15 K, 101 kPa, x1 = 0.7002 | 0.6378 ± 0.0044
303.15 K, 101 kPa, x1 = 0.7987 | 0.6822 ± 0.0046
303.15 K, 101 kPa, x1 = 0.8977 | 0.7447 ± 0.0048
303.15 K, 101 kPa, x2 = 0.094 | 0.755 ± 0.015
303.15 K, 101 kPa, x2 = 0.1043 | 0.7412 ± 0.008
303.15 K, 101 kPa, x2 = 0.2011 | 0.6892 ± 0.0076
303.15 K, 101 kPa, x2 = 0.251 | 0.658 ± 0.013
303.15 K, 101 kPa, x2 = 0.3015 | 0.6418 ± 0.0073
303.15 K, 101 kPa, x2 = 0.4038 | 0.6099 ± 0.0071
303.15 K, 101 kPa, x2 = 0.418 | 0.594 ± 0.012
303.15 K, 101 kPa, x2 = 0.5005 | 0.5913 ± 0.007
303.15 K, 101 kPa, x2 = 0.582 | 0.566 ± 0.012
303.15 K, 101 kPa, x2 = 0.6032 | 0.5734 ± 0.0069
303.15 K, 101 kPa, x2 = 0.7006 | 0.5632 ± 0.0069
303.15 K, 101 kPa, x2 = 0.736 | 0.55 ± 0.011
303.15 K, 101 kPa, x2 = 0.7996 | 0.5634 ± 0.0069
303.15 K, 101 kPa, x2 = 0.891 | 0.555 ± 0.011
303.15 K, 101 kPa, x2 = 0.9011 | 0.5689 ± 0.0069
303.45 K, 101.33 kPa, x1 = 0.7 | 0.6645 ± 0.0077
303.55 K, 101.33 kPa, x1 = 0.5 | 0.6035 ± 0.007
303.65 K, 101.33 kPa, x1 = 0.4 | 0.5874 ± 0.0068
303.75 K, 101.33 kPa, x1 = 0.3 | 0.5794 ± 0.0067
304.25 K, 101.33 kPa, x1 = 0.85 | 0.7288 ± 0.0085
304.55 K, 101.33 kPa, x1 = 0.6 | 0.6189 ± 0.0072
306.35 K, 101.33 kPa, x1 = 0.2 | 0.5538 ± 0.0064
308.15 K, 101 kPa, x2 = 0.1043 | 0.6842 ± 0.0076
308.15 K, 101 kPa, x2 = 0.2011 | 0.6409 ± 0.0073
308.15 K, 101 kPa, x2 = 0.3015 | 0.5971 ± 0.0071
308.15 K, 101 kPa, x2 = 0.4038 | 0.5697 ± 0.0069
308.15 K, 101 kPa, x2 = 0.5005 | 0.5535 ± 0.0068
308.15 K, 101 kPa, x2 = 0.6032 | 0.537 ± 0.0067
308.15 K, 101 kPa, x2 = 0.7006 | 0.5274 ± 0.0067
308.15 K, 101 kPa, x2 = 0.7996 | 0.5266 ± 0.0067
308.15 K, 101 kPa, x2 = 0.9011 | 0.5325 ± 0.0067
312.15 K, 101.33 kPa, x1 = 0.1 | 0.5154 ± 0.006
312.65 K, 101.33 kPa, x1 = 0.4 | 0.5272 ± 0.0061
312.65 K, 101.33 kPa, x1 = 0.5 | 0.5397 ± 0.0063
312.75 K, 101.33 kPa, x1 = 0.3 | 0.5184 ± 0.006
312.85 K, 101.33 kPa, x1 = 0.6 | 0.5535 ± 0.0064
313.15 K, 101 kPa, x2 = 0.094 | 0.651 ± 0.013
313.15 K, 101 kPa, x2 = 0.1043 | 0.6342 ± 0.0073
313.15 K, 101 kPa, x2 = 0.2011 | 0.5944 ± 0.0071
313.15 K, 101 kPa, x2 = 0.251 | 0.574 ± 0.012
313.15 K, 101 kPa, x2 = 0.3015 | 0.5574 ± 0.0068
313.15 K, 101 kPa, x2 = 0.4038 | 0.5315 ± 0.0067
313.15 K, 101 kPa, x2 = 0.418 | 0.53 ± 0.011
313.15 K, 101 kPa, x2 = 0.5005 | 0.5172 ± 0.0067
313.15 K, 101 kPa, x2 = 0.582 | 0.499 ± 0.01
313.15 K, 101 kPa, x2 = 0.6032 | 0.5037 ± 0.0066
313.15 K, 101 kPa, x2 = 0.7006 | 0.494 ± 0.0065
313.15 K, 101 kPa, x2 = 0.736 | 0.489 ± 0.01
313.15 K, 101 kPa, x2 = 0.7996 | 0.4952 ± 0.0065
313.15 K, 101 kPa, x2 = 0.891 | 0.49 ± 0.01
313.15 K, 101 kPa, x2 = 0.9011 | 0.4973 ± 0.0066
313.25 K, 101.33 kPa, x1 = 0.2 | 0.5122 ± 0.0059
314.15 K, 101.33 kPa, x1 = 0.85 | 0.6325 ± 0.0074
315.75 K, 101.33 kPa, x1 = 0.7 | 0.5676 ± 0.0066
322.55 K, 101.33 kPa, x1 = 0.6 | 0.5006 ± 0.0058
322.85 K, 101.33 kPa, x1 = 0.85 | 0.567 ± 0.0066
322.95 K, 101.33 kPa, x1 = 0.1 | 0.4571 ± 0.0053
322.95 K, 101.33 kPa, x1 = 0.4 | 0.4739 ± 0.0055
323.15 K, 100 kPa, x2 = 0.2504 | 0.5258 ± 0.014
323.15 K, 100 kPa, x2 = 0.4997 | 0.4555 ± 0.012
323.15 K, 100 kPa, x2 = 0.7497 | 0.4303 ± 0.012
323.15 K, 101 kPa, x2 = 0.094 | 0.567 ± 0.012
323.15 K, 101 kPa, x2 = 0.251 | 0.506 ± 0.01
323.15 K, 101 kPa, x2 = 0.418 | 0.471 ± 0.01
323.15 K, 101 kPa, x2 = 0.582 | 0.445 ± 0.009
323.15 K, 101 kPa, x2 = 0.736 | 0.442 ± 0.009
323.15 K, 101 kPa, x2 = 0.891 | 0.438 ± 0.009
